The results in this text go back to patent US20250170098A1, “MOLECULAR JACKHAMMER FOR MECHANICAL DESTRUCTION OF CELLULAR STRUCTURE” (William Marsh Rice University, priority 2022, published 2025).

For assay [1], the system named is human melanoma A375 cells. Briefly: Cell permeabilization to DAPI, flow cytometry analysis. It counts as cell-based. Conditions: for permeabilization of the cells to DAPI: 730 nm light at 80 mW/cm^2 for 10 min; for pIC50: Homo sapiens, A-375, 10 min, 730 nm LED light at 80 mW/cm^2 for 10 min, DAPI positive cells, read-out: VDA IC50 (effective concentration needed to permeabilize cells by 50%). The protocol:
The activity of plasmon-driven MJHs to open cell membranes by VDA upon NIR light-activation was evaluated in human melanoma A375 cells. When the cell membranes were open by VDA, DAPI enters immediately into the cells and stain the nucleus, and flow cytometry analysis was used to quantify the percentage of DAPI positive cells at variable concentrations of MJH. The flow cytometry analysis is conducted immediately after the cells were treated with 730 nm LED light at 80 mW/cm^2 for 10 min. Typically, it took ˜30 s to start cell counting and observe that DAPI already had entered into the cell membrane-compromised cells but not in the controls without VDA action. This is indicative of a rapid necrotic cell death and cell membrane permeabilization to DAPI by VDA action. The effective concentration needed to permeabilize cells by 50% (VDA IC50) was estimated for each molecule.
The flow cytometry data was analyzed using FlowJo software version 10.5.3. Then, a wide polygonal gate was drawn as shown in FIG. 33A since we were interested in detecting any cell death after treatment, we were not only interested in measuring healthy cell populations. Sometimes, we observed that the death cell population upon treatment shifted outside the gate if a narrow gate was used. Then, the singlets were selected and the DAPI fluorescence intensity was plotted versus the SSC-A and the gate for DAPI positive cells was drawn as shown in FIG. 33C and the analysis was applied to all samples in the group. In FIG. 33D, a DAPI positive population is observed in the same analysis group. This analysis was applied to calculate the percentage of DAPI positive cells.
Cell Permeabilization and flow cytometry analysis. A375 cells were cultured as described before. One day before the treatment, cells were inoculated at 5 million cells per dish (10 cm polystyrene tissue culture dish). The cells were harvested using 0.05% trypsin-EDTA (Gibco, 25-300-054), then the cells were counted and were adjusted to a cell density of 2×10^5 cells/mL in DMEM media with L-glutamine, 4.5 g/L glucose, and sodium pyruvate (Corning Inc. 10013CV) and supplemented with 10% FBS (Corning, 35010CV), 2×MEM vitamin solution (Gibco, 11120052), 1×MEM non-essential amino acid solution (Gibco, 11140050) and penicillin/streptomycin. 1 mL of this cell suspension containing 2×10^5 cells was used in each treatment. In a 1.5 mL Eppendorf tube, […] containing 2 mM Cy7.5-amine (or other cyanine molecule or other concentration) in DMSO (Fisher, 99.7%) was placed in the bottom of the tube, then 1 mL of the cell suspension was added into the tube to get final concentration of 2 μM of Cy7.5-amine containing 0.1% DMSO and 2×10^5 cells. The mixture was then incubated at 37° C. and 5% CO2 for 30 min. Then, 1 mM DAPI was added into the cell suspension. Then, the cells suspension was transferred to a […] tissue culture dish and immediately the cells were treated under the light beam of NIR light of 730 nm at 80 mW/cm^2 (or adjusted powers down to 20 mW/cm^2) for 10 min (or adjusted illumination times down to 30 s) using LED light source (PRIZMATIX, UHP-F-730, Israel) which covered the entire dish. While the cells were treated, the dish was placed on top of an aluminum block painted black, so that the excess NR light and that was not reflected back into the cell suspension while the aluminum block actED as a heat-sink, maintaining a constant temperature in the dish during the irradiation. The instrument for flow cytometry analysis (SONY, MA900 Multi-Application Cell Sorter) was already set up and calibrated by the time the light treatment was finished. Therefore, as soon as the 10-min light treatment was completed, the cell suspension was rapidly transferred from the 35 mm dish to a flow cytometry tube and the cells were analyzed for DAPI permeabilization and Cy7.5-amine binding. It took ˜30 s to load the sample and to start the analysis. […]
Background: In flow cytometry, cells or beads pass a laser one at a time.

In the next assay the test system is A375 cells. Briefly: Clonogenic assay. The conditions noted are these: Homo sapiens, A-375, read-out: lethal concentration to kill the cell population by 50% (VDA IC50). It counts as cell-based, human. The protocol:
The clonogenic assay was conducted to confirm that cancer cells treated by plasmon-driven MJH are indeed death upon NIR-light activation (FIG. 18). Three molecules were analyzed: the most VDA active BL-204, medium active BL-141-2 and low active Cy7-amine. […] This was accomplished by incubating the MJH molecules with the A375 cells for 50 min and immediately activate the plasmon-driven MJH using 730 nm NIR-light at 80 mW/cm^2 for 10 min. This is considered a short contact time between the MJH and the A375 cells.
Clonogenic assay. A375 cells were seeded in 35 mm cell culture dishes at predetermined densities to allow for an approximately equal number of resultant colonies. The next day, cells were treated with Cy7.5-amine at variable concentration and with or without 730 nm light at 80 mWcm^−2 for 10 min. The cells were incubated with Cy7.5-amine for 50 min before the illumination, the media was replaced with fresh media after the illumination and cells were cultured for 6 days to allow for colony formation. Cells were then washed once with PBS and fixed-stained in a 0.5% (w/v) crystal violet in methanol/water solution (1:1) during 10 min. The excess of crystal violet was washed off with water, the plates were dried at room temperature and then the colonies were counted using ImageJ software version 1.52a, and the survival fraction was determined. All treatments were in triplicate.

pIC50: −log10 of the molar value.

Regarding `CC1(C)C(/C=C/C=C/C=C/C=C2\N(CCCCS(=O)(=O)O)c3ccc4ccccc4c3C2(C)C)=[N+](CCCCS(=O)(=O)[O-])c2ccc3ccccc3c21` [ICG, indocynine green], the “permeabilization of the cells to DAPI” value in assay [1] (32 μM) worked out at 2%; in assay [1] (400 μM) it was 14%. Also, in assay [1], the pIC50 is < 5.10.

With `CN1/C(=C/C=C2C=C(/C=C/c3ccc4ccccc4[n+]3C)CCC/2)C=Cc2ccccc21` [BL-206], the pIC50 in assay [1] was < 5.10.

For the molecule `CN(C)CCCCCC[N+]1=C(/C=C/C2=CC(=C/C=C3/N(C)c4ccc5ccccc5c4C3(C)C)/CCC2)C(C)(C)c2c1ccc1ccccc21` [BL-141-2, 3-(6-(dimethylamino)hexyl)-1,1-dimethyl-2-((E)-2-((E)-3-((E)-2-(1,1,3-trimethyl-1,3-dihydro-2H-benzo[e]indol-2-ylidene)ethylidene)cyclohex-1-en-1-yl)vinyl)-1H-benzo[e]indol-3-ium], the pIC50 in the assay with A375 cells is 7.19.

Consider `CN(C)CC[N+]1=C(/C=C/C2=CC(=C/C=C3/N(C)c4ccc5ccccc5c4C3(C)C)/CCC2)C(C)(C)c2c1ccc1ccccc21` [BL-204, 3-(2-(dimethylamino)ethyl)-1,1-dimethyl-2-((E)-2-((E)-3-((E)-2-(1,1,3-trimethyl-1,3-dihydro-2H-benzo[e]indol-2-ylidene)ethylidene)cyclohex-1-en-1-yl)vinyl)-1H-benzo[e]indol-3-ium], for which the pIC50 in the assay with A375 cells was 7.35; in assay [1], 6.92.

As to `CN1/C(=C\C=C2C=C(/C=C/C3=[N+](CCCCCC(=O)NCCCCCCN)c4ccccc4C3(C)C)CCC\2)C(C)(C)c2ccccc21` [Cy7-amine], the pIC50 in the assay on A375 cells was 6.76. Moreover, the “permeabilization to DAPI staining, percentage of cells” value in assay [1] (1 μM, 730 nm LED at 80 mW/cm^2 for 10 min) came to 0.8%. Besides, the “effect of 680 nm excitation on opening cell membranes” value in assay [1] (680 nm LED, 80 mWcm^−2 for 10 min) was “improves the MJH effect for opening cell membranes”.
